The source made the active and inactive calls. No cut-off for these calls is given here.
Assays:
[1] = Genotoxicity in Salmonella typhimurium TA98 at 0.004 to 5 mg/ml measured after 90 mins in absence of rat S9 fraction by mini-Ames test; format: toxicity; settings: salmonella enterica subsp. enterica serovar typhimurium
[2] = Half life in CD1 mouse at 3 mg/kg, iv or 10 mg/kg, po administered via gavage by LC-MS/MS analysis; format: ADME, organism-based; settings: in vivo
[3] = Cytotoxicity against HFF monolayers assessed as cell growth measured after 72 hrs by luciferase reporter gene assay relative to control; format: cell-based; settings: human, read-out: Activity
[4] = system: Toxoplasma gondii; test: Antiparasitic activity against type 1 Toxoplasma gondii RH tachyzoites infected in CD1 mouse assessed as reduction in mouse death at 60 mg/kg, po administered once daily via gavage for 7 days by bioluminescence assay; format: functional, organism-based
[5] = system: CHO-K1; test: Genotoxicity in CHOK1 cells measured after 24 hrs in absence of Sprague-Dawley rat liver S9 fraction by Hoechst/calcein-AM staining based micronucleus test; format: toxicity, cell-based, Cricetulus griseus; settings: chinese hamster, cho-k1, 24 h
[6] = system: Toxoplasma gondii; test: Antiparasitic activity against type 1 Toxoplasma gondii RH tachyzoites infected in CD1 mouse assessed as reduction in parasite expansion at 30 mg/kg, po administered twice daily via gavage for 7 days by bioluminescence assay; format: functional, organism-based
[7] = Inhibition of Toxoplasma gondii full-length wild-type C-terminal His-tagged CDPK1 expressed in Escherichia coli BL21(DE3)V2RpAcYc-LIC+LamP using syntide-2 peptide as substrate incubated for 20 to 40 mins by ELISA
[8] = system: Src (human) versus Toxoplasma gondii CDPK1; test: Selectivity ratio of IC50 for inhibition of human Src expressed in Escherichia coli BL21 to IC50 for inhibition of Toxoplasma gondii full-length wild-type C-terminal His-tagged CDPK1 expressed in Escherichia coli BL21(DE3)V2RpAcYc-LIC+LamP; format: toxicity; settings: read-out: Ratio IC50
[9] = target: Proto-oncogene tyrosine-protein kinase Src (Homo sapiens, UniProt P12931); test: Inhibition of human Src expressed in Escherichia coli BL21 using Abltide peptide as substrate incubated for 20 to 40 mins by ELISA
Chain of Proto-oncogene tyrosine-protein kinase Src (P12931 2-536 limits assumed): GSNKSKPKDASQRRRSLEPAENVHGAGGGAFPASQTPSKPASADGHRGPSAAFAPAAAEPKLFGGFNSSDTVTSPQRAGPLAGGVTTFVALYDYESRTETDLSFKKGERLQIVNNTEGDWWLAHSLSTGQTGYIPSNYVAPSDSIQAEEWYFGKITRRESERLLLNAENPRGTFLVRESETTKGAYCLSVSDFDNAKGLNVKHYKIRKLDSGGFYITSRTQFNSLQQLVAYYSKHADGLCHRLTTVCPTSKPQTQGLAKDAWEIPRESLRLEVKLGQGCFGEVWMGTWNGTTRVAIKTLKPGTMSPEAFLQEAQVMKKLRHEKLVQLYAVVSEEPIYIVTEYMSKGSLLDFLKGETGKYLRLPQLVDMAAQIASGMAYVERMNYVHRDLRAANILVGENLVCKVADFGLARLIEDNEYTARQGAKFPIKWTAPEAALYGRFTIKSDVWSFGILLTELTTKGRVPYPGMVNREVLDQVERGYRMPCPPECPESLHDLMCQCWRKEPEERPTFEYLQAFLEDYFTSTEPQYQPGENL

[10] = target: Casein kinase I epsilon (CKepsilon) (Homo sapiens, UniProt P49674); test: Inhibition of recombinant human full-length His-tagged CKepsilon expressed in baculovirus expression system at 1 uM by Lanthascreen assay relative to control
Chain of Casein kinase I epsilon (CKepsilon) (P49674 whole entry, the tested form may be a part): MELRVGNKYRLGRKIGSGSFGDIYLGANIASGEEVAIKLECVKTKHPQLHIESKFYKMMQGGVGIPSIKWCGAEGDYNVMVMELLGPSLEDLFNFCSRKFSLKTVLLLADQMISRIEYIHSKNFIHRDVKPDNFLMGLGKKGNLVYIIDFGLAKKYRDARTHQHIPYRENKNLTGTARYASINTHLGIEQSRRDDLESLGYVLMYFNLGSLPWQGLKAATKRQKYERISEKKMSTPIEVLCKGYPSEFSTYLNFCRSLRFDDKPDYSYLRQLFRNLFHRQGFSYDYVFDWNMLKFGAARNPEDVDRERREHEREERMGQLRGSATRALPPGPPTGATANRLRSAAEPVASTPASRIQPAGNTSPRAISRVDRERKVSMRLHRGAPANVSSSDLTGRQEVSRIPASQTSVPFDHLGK

[11] = target: MAP4K4 (Homo sapiens, UniProt O95819); test: Inhibition of recombinant human GST-tagged MAP4K4 catalytic domain expressed in baculovirus expression system at 1 uM by Lanthascreen assay relative to control
Chain of MAP4K4 (O95819 whole entry, the tested form may be a part): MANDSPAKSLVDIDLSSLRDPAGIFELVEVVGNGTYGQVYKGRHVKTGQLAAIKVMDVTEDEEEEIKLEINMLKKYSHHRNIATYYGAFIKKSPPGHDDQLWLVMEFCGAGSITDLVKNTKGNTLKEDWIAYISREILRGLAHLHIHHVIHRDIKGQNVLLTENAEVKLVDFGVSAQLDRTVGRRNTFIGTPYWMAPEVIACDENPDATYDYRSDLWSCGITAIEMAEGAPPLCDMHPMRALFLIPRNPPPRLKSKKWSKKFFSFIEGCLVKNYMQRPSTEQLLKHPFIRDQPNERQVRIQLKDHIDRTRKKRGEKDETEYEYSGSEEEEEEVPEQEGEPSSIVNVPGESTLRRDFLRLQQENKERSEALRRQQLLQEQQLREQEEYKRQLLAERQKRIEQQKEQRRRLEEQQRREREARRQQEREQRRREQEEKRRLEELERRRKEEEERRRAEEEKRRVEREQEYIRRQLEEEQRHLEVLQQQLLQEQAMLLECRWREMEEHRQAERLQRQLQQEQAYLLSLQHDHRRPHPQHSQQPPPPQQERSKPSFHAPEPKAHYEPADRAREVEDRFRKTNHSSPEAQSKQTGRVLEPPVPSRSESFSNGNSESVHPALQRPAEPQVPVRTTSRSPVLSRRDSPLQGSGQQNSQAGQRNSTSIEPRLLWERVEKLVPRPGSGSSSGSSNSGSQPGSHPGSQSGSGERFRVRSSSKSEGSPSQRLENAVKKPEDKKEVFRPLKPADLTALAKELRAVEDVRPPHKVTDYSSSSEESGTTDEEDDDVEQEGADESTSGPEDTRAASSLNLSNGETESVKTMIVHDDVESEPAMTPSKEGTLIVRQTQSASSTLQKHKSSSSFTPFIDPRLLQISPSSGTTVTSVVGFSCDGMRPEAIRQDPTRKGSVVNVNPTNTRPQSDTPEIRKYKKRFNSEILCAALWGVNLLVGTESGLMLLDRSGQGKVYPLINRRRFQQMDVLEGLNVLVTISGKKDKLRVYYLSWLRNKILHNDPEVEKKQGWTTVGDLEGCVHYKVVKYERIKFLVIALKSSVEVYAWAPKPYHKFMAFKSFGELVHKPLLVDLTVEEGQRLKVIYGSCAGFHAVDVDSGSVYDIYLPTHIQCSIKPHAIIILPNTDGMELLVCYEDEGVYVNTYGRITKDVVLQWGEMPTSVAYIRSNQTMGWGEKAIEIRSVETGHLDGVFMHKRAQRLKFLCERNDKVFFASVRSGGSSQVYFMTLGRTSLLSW

[12] = system: MDR1; test: Efflux ratio of apparent permeability across basolateral to apical side over apical to basolateral side in MDCK2-MDR1 cells at 2 uM measured after 150 mins by LC-MS/MS analysis; format: ADME, cell-based, Canis lupus familiaris; settings: dog, MDCK-MDR1
[13] = Half life in mouse liver microsomes at 10 uM preincubated for 10 mins followed by NADPH addition by LC-MS/MS analysis; format: ADME, Microsome; settings: liver microsomes
[14] = system: Toxoplasma gondii; test: Antiparasitic activity against type 1 Toxoplasma gondii RH tachyzoites infected in CD1 mouse assessed as […] at 15 mg/kg, po administered four times daily via gavage for 7 days followed by lung and brain isolation on 15 days post-infection and co-culture with naive CD1 mouse; format: functional
[15] = system: Toxoplasma gondii; test: Antiparasitic activity against type 1 Toxoplasma gondii RH tachyzoites infected in CD1 mouse assessed as reduction in parasite expansion at 60 mg/kg, po administered once daily via gavage for 7 days by bioluminescence assay; format: functional, organism-based
[16] = Genotoxicity in Salmonella typhimurium TA100 at 0.004 to 5 mg/ml measured after 90 mins in presence of rat S9 fraction by mini-Ames test; format: toxicity, subcellular; settings: salmonella enterica subsp. enterica serovar typhimurium
[17] = Oral bioavailability in CD1 mouse at 10 mg/kg administered via gavage by LC-MS/MS analysis; format: ADME, organism-based; settings: in vivo
[18] = target: T1, ALK5 (TGF-beta receptor type-1) (Homo sapiens, UniProt P36897); test: Inhibition of human […] N-terminal GST-tagged ALK5 (200 to 503 residues) expressed in baculovirus expression system at 1 uM by Lanthascreen assay relative to control
T1 sequence (P36897 whole entry): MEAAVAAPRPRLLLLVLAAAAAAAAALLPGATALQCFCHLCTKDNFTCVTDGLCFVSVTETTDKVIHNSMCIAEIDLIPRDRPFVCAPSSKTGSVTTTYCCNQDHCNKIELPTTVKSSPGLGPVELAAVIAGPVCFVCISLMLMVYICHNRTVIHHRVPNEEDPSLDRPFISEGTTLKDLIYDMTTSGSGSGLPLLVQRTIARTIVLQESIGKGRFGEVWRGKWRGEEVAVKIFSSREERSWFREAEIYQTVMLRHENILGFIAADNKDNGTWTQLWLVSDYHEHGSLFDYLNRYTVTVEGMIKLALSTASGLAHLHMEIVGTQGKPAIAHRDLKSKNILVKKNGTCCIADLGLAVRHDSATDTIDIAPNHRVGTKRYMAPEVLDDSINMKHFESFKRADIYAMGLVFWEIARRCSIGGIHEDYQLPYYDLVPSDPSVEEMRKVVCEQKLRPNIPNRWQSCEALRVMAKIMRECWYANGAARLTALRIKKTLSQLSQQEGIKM

[19] = Inhibition of Toxoplasma gondii full-length C-terminal His-tagged CDPK1 G128M mutant expressed in Escherichia coli BL21(DE3)V2RpAcYc-LIC+LamP using syntide-2 peptide as substrate incubated for 20 to 40 mins by ELISA
[20] = system: Toxoplasma gondii; test: Protection against reactivation of type 2 Toxoplasma gondii ME49 infection in sulfadiazin-treated Ifngr1-/- CD1 mouse assessed as increase in mouse survival at 60 mg/kg, po administered twice daily via gavage for 21 days measured up to 30 days; format: functional, organism-based
[21] = system: CHO-K1; test: Genotoxicity in CHOK1 cells measured after 3 hrs in presence of Sprague-Dawley rat liver S9 fraction by Hoechst/calcein-AM staining based micronucleus test; format: toxicity, cell-based, Cricetulus griseus; settings: chinese hamster, s9, 3 h
[22] = system: Toxoplasma gondii; test: Antiparasitic activity against type 1 Toxoplasma gondii RH tachyzoites infected in CD1 mouse assessed as reduction in mouse death at 30 mg/kg, po administered twice daily via gavage for 7 days by bioluminescence assay; format: functional, organism-based
[23] = Cytotoxicity against human SH-SY5Y cells assessed as cell growth at 20 uM measured after 72 hrs by cellTiter 96 AQueous non-radioactive cell proliferation assay relative to control; format: cell-based; settings: read-out: Activity
[24] = Genotoxicity in Salmonella typhimurium TA100 at 0.004 to 5 mg/ml measured after 90 mins in absence of rat S9 fraction by mini-Ames test; format: toxicity; settings: salmonella enterica subsp. enterica serovar typhimurium
[25] = Half life in human liver microsomes at 10 uM preincubated for 10 mins followed by NADPH addition by LC-MS/MS analysis; format: ADME, Microsome; settings: liver microsomes
[26] = Cytotoxicity against human CMEC/D3 cells assessed as cell growth at 20 uM measured after 72 hrs by cellTiter 96 AQueous non-radioactive cell proliferation assay relative to control; format: cell-based, hCMEC/D3; settings: read-out: Activity
[27] = system: Toxoplasma gondii; test: Antiparasitic activity against 2F clone of type 1 Toxoplasma gondii RH tachyzoites expressing beta-galactosidase infected in HFF assessed as reduction in parasite growth measured after 72 hrs by chlorophenol Red-beta-D-galactopyranoside substrate based assay; format: functional, organism-based

Question: What does the source list for `Nc1ncnc2c1c(Oc1cc(C(F)(F)F)ccn1)nn2C1CC1`?
Answer: Activity [1]: Non-Toxic; t1/2 [2]: 4.2 h; viability at 72 h [3]: 106%; Activity [4]: Active; Activity [5]: > 1000 µM; Activity [6]: Active; IC50 [7]: 16 to 16.5 nM; selectivity ratio [8]: > 1000; IC50 [9]: > 20000 nM; inhibition at 1 µM [10]: > 50%; inhibition at 1 µM [11]: > 50%; efflux ratio at […], 2 µM [12]: 0.64; half-life at 10 µM [13]: > 2.42 h; survival at 15 mg/kg [14]: 20%; Activity [15]: Active; Activity [16]: Non-Toxic; bioavailability [17]: 83%; inhibition at 1 µM [18]: > 50%; IC50 [19]: > 20000 nM; Activity [20]: Active; Activity [21]: > 1000 µM; Activity [22]: Active; viability at 72 h, 20 µM [23]: 103%; Activity [24]: Non-Toxic; half-life at 10 µM [25]: > 2.42 h; viability at 72 h, 20 µM [26]: 132%; EC50 [27]: 172 nM

Question: Which Activity [1] does the source give for `N#Cc1ccnc(Oc2nn([C@H]3C[C@H](F)C3)c3ncnc(N)c23)c1` here?
Answer: Non-Toxic

Question: What about the t1/2 [2] of the same compound?
Answer: 1.43 h

Question: What about the viability at 72 h [3] of the same compound?
Answer: 112%

Question: What about the Activity [5] of the same compound?
Answer: > 100 µM

Question: What about the IC50 [7] of the same compound?
Answer: 14.9 to 15 nM

Question: And the IC50 [9]?
Answer: > 20000 nM

Question: And the inhibition at 1 µM [10]?
Answer: > 50%

Question: And the half-life at 10 µM [13]?
Answer: > 2.42 h

Question: And the Activity [16]?
Answer: Non-Toxic

Question: What about the bioavailability [17] of the same compound?
Answer: 43.1%

Question: What about the IC50 [19] of the same compound?
Answer: > 20000 nM

Question: And the Activity [21]?
Answer: > 100 µM

Question: And the viability at 72 h, 20 µM [23]?
Answer: 103%

Question: What about the Activity [24] of the same compound?
Answer: Non-Toxic

Question: What about the half-life at 10 µM [25] of the same compound?
Answer: > 2.42 h

Question: And the viability at 72 h, 20 µM [26]?
Answer: 135%

Question: And the EC50 [27]?
Answer: 201 nM
